Where a name gives a salt, the structure may show the parent alone.
Legend:
[1] = Tested for the 1-Octanol distribution coefficient determined by HPLC method (pH 7.4); format: physicochemical; settings: 1-octanol/aqueous phase
[2] = molecular target: T1, Adrenergic receptor alpha-2 (Rattus norvegicus, UniProt P22086+P19328+P22909); assay: Antagonistic activity against Alpha-2 adrenergic receptor in the prostatic portion of the rat vas deferens; format: functional, tissue-based
T1 sequence (P22086 whole entry): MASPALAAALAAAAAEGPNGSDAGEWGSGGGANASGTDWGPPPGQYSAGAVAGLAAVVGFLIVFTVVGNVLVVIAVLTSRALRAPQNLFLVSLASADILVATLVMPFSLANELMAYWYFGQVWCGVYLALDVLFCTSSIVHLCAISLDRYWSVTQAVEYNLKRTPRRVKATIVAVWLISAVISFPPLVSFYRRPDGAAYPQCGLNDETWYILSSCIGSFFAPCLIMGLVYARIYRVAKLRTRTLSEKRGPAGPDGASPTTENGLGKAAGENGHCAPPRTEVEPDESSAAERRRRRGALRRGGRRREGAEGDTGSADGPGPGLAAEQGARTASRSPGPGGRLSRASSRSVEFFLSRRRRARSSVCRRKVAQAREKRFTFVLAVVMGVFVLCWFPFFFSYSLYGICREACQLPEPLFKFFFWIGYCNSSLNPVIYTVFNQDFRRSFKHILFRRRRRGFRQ
T1 sequence (P19328 whole entry): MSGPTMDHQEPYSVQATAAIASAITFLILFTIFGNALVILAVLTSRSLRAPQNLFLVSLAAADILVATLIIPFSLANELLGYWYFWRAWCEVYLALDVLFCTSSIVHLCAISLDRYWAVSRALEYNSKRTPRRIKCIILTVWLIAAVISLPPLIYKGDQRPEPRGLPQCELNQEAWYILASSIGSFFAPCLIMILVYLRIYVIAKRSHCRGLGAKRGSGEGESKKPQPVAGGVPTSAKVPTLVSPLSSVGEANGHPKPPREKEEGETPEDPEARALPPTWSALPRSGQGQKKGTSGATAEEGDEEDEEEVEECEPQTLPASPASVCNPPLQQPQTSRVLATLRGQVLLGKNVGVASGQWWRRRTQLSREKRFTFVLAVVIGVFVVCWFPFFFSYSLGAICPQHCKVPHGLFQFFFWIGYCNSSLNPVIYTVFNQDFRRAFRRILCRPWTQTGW
T1 sequence (P22909 whole entry): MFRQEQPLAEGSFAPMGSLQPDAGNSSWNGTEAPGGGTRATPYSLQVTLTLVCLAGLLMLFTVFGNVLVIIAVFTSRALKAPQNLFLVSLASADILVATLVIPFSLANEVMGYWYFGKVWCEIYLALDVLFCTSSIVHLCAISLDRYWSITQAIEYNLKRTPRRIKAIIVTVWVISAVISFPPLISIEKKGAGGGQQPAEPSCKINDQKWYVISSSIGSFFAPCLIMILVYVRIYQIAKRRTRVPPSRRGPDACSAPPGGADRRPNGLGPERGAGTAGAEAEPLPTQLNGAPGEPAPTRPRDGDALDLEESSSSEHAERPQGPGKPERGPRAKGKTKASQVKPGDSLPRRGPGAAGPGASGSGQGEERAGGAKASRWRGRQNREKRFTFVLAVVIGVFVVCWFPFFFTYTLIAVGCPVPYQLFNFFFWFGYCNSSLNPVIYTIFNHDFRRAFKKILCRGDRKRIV

[3] = molecular target: Adrenergic receptor alpha (Rattus norvegicus) (UniProt P15823+P23944+P43140+P22086+P19328+P22909); assay: Selectivity ratio is the […] of alfa2 and alfa1 adrenoceptors; format: protein assay
[4] = molecular target: T2, Adrenergic receptor alpha-1 (Rattus norvegicus, UniProt P15823+P23944+P43140); assay: Antagonistic activity against Alpha-1 adrenergic receptor in the epididymal portion of the rat vas deferens; format: functional, tissue-based
T2 sequence (P15823 whole entry): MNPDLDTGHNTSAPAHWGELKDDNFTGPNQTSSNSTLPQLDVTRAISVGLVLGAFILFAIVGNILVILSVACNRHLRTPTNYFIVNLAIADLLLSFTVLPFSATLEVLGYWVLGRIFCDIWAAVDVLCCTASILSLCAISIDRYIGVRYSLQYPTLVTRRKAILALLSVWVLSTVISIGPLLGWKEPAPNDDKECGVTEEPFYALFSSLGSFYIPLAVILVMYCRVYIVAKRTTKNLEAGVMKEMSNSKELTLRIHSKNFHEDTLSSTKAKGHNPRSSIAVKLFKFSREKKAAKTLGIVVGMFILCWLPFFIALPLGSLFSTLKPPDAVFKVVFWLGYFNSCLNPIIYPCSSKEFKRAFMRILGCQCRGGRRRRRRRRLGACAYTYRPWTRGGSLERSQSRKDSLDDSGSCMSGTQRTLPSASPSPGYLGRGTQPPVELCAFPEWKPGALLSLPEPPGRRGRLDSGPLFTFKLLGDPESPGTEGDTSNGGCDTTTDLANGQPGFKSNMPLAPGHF
T2 sequence (P23944 whole entry): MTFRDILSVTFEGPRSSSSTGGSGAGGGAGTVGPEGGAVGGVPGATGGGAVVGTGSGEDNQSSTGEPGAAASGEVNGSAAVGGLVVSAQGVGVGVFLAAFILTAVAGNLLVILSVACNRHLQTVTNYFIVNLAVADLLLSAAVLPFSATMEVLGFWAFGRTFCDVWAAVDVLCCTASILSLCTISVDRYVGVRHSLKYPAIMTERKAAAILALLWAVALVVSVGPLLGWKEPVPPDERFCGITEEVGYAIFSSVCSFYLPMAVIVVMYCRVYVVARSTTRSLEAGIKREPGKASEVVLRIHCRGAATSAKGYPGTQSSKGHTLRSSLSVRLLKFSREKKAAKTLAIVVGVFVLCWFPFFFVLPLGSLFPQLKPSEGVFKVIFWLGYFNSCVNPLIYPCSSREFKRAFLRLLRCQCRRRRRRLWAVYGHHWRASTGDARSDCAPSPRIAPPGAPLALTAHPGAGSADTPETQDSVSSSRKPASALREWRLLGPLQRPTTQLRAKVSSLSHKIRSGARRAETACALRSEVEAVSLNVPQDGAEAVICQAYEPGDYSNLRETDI
T2 sequence (P43140 whole entry): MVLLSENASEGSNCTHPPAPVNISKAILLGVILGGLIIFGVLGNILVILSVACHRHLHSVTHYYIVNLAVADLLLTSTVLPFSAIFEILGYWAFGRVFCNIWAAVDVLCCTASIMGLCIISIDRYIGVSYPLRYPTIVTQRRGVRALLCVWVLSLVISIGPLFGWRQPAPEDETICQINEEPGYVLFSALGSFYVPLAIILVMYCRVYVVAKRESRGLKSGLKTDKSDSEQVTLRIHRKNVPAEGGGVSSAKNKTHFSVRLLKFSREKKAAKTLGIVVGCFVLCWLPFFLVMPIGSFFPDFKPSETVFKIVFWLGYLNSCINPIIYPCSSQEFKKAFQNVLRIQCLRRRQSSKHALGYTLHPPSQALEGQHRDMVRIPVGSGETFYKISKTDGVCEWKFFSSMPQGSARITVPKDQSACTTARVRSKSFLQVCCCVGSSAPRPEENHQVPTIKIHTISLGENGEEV

[5] = molecular target: T2, Adrenergic receptor alpha-1; assay: […] activity against Alpha-1 adrenergic receptor in the epididymal portion of the rat vas deferens; format: functional, tissue-based

SMILES	logD [1]	pA2 [2]	Selectivity ratio [3]	pA2 [4]	pA2 [5]
Cl.c1ccc2c(c1)OCC(c1ncc[nH]1)O2 (stereo unspecified)	1.76	5.6	> 39.8	< 4	
CC(C)n1ccnc1CC1COc2ccccc2O1 (stereo unspecified)		6.56	182	4.3	
CCN1CCN=C1CC1COc2ccccc2O1.Cl (stereo unspecified)		6.7	50.1	5	
CCn1ccnc1CC1COc2ccccc2O1.Cl (stereo unspecified) [IMILOXAN HYDROCHLORIDE]	2.31	6.71		< 4	
c1ccc2c(c1)OCC(Cc1ncc[nH]1)O2 (stereo unspecified)	1.92				
Cl.c1ccc2c(c1)OCC(CC1=NCCN1)O2 (stereo unspecified)	0.28	7	100	5	
Cl.c1ccc(-c2c[nH]c(CC3COc4ccccc4O3)n2)cc1 (stereo unspecified)	> 2.5	5.51	> 3.2	< 5	
Cl.c1ccc(Cn2ccnc2CC2COc3ccccc3O2)cc1 (stereo unspecified)	> 2.5	6.84	69.2		5
Cl.c1ccc2c(c1)OCC(CCc1ncc[nH]1)O2 (stereo unspecified)	1.99		102	4.2	
c1ccc2c(c1)OCC(CN1CCCCC1)O2 (stereo unspecified) [PIPEROXAN]		7.4			
Cl.Cn1ccnc1CC1COc2ccccc2O1 (stereo unspecified)	1.93		74.1	4.33	
COc1cccc(Cn2ccnc2CC2COc3ccccc3O2)c1.Cl (stereo unspecified)		6.58	38		5
CCCCn1ccnc1CC1COc2ccccc2O1.Cl (stereo unspecified)		6.84	> 219	< 4.5	
c1ccc2c(c1)OCC(Cc1nc3ccccc3[nH]1)O2 (stereo unspecified)	3.29				
c1ccc2c(c1)OCC(C1=NCCN1)O2 (stereo unspecified) [IDAZOXAN HYDROCHLORIDE]	0.33				
CCCn1ccnc1CC1COc2ccccc2O1 (stereo unspecified)	2.4				
NCC1(c2ccccc2)OCCO1		5.5	> 3.2	< 5	
Clc1cccc(Cl)c1Cn1ccnc1CC1COc2ccccc2O1 (stereo unspecified)		6	> 10	< 5	
Cl.N=C(N)CC1COc2ccccc2O1 (stereo unspecified)		5.4	> 2.5	< 5	

Reference: ChEMBL document CHEMBL1122073, “Structure-activity relationships for 2-substituted imidazoles as alpha 2-adrenoceptor antagonists” (J Med Chem, 1982)
